Laboratory results from patent US9650614B2, “Anaplastic lymphoma kinase (ALK) as oncoantigen for lymphoma vaccination” (priority 2007, dated 2017).
Entries after “also recorded” stand apart in the source; their conditions may differ.

What was measured:
[1] = test system: NPM-ALK lymphoma cells; assay: in vitro survival of lymphoma cells with doxorubicin (TMRM staining, flow cytometry); type: cell-based, murine; conditions: 24 or 48 hours, increasing concentrations
Protocol: FIG. 6. NPM-ALK lymphoma cells are sensitive to doxorubicin. NPM-ALK lymphoma cells were incubated in vitro for 24 or 48 hours with increasing concentrations of doxorubicin. Percentages of alive cells were calculated by TMRM staining and flow cytometry analyses.
To mimic more strictly these clinical settings, the efficiency of the vaccination strategy disclosed herein in association with chemotherapy, which remains the standard therapeutic strategy for human Anaplastic Large Cell Lymphomas (ALCL), was tested.

[2] = test system: NPM-ALK lymphoma cells; assay: i.v. lymphoma treated with single dose doxorubicin followed by DNA vaccination; type: in vivo, BALB/c mice
From the text: FIG. 2. Efficacy of ALK vaccination in preventing disseminated lymphoma growth and in lymphoma therapy (a,b) Disseminated growth of NPM-ALK lymphoma cells injected in the tail vein in mock or ALK plasmid vaccinated BALB/c mice. (a) All mock vaccinated mice challenged i.v. 7 days after the second vaccination with 1×10^6 NPM-ALK lymphoma died of lymphoma outgrowth within 50 days after challenge while 70% of ALK vaccinated mice remained alive and well for all the observation period of 180 days. […] (c) Increasing amounts of NPM-ALK lymphoma cells were injected s.c. in BALB/c mice on day 0. Mice were then vaccinated as described above on days 1 and 8. Tumor growth was followed over time. Data are from one of two independent experiments with at least 7 mice for each group. * P<0.01. (d) BALB/c mice were i.v. injected with 1×10^6 NPM-ALK lymphoma cells on day 0. On day 7 mice received i.v. 10 mg/kg of doxorubicin (dashed arrow) followed on days 14, 21 and 28 by DNA vaccination with empty (mock) or ALK-expressing plasmids (full arrows). Mice were then followed up to 90 days. […] Tumor size was measured over time. […]
A single dose chemotherapy protocols was employed using doxorubicin (10 mg/kg) 7 day prior the i.v. injection of a challenging dose (1×10^6) of NPM-ALK positive lymphoma cells. […] Tumor growth and overall survival were determined, overtime.

[3] = test system: NPM-ALK expressing lymphoma cells; assay: s.c. challenge with NPM-ALK lymphoma cells after DNA vaccination; type: in vivo, BALB/c mice; conditions: vaccinated twice at a week interval; s.c. challenge one week after second vaccination
Protocol: FIG. 1. ALK vaccination prevents the growth of NPM-ALK positive lymphoma cells. (a,b) BALB/c mice were vaccinated on day 0 and 7 in both the tibial muscles with 40 μg of pDEST plasmid or with pDEST-ALK (ALK) plasmid coding for the full ALK tyrosine kinase intracytoplasmic domain (a) or with pDEST-ALKt (ALKt) coding for a truncated portion of ALK lacking the part of the tyrosine kinase domain (b). An additional group of mice was vaccinated with the pDEST-ALK or pDEST-ALKt plasmids combined with the same amount of a pcDNA3 plasmid coding for GM-CSF. […]
Mice were challenged subcutaneously in the right flank with 0.2 ml PBS of a single suspension containing 10^5 to 10^6 ALK-OVA and VAC lymphoid cells, as indicated in each experiment. The cages were coded, and the incidence and the growth of tumors were evaluated at the indicated times in a blind fashion. Neoplastic masses were measured with calipers in the two perpendicular diameters.
For DNA electroporation, 50 μg of pDEST empty vector or pDEST-ALK (ALK) vector in 20 μl of 0.9% NaCl with 6 mg/ml polyglutamate were injected on days 0 and 7 into both the tibial muscle of anesthetized BALB/c mice. […] Protection was evaluated as the percentage of lymphoma-free mice 21 days after challenge.

| Molecule | sensitivity of lymphoma cells (apoptosis / alive cells) [1] | cure rate ([2]; chemotherapy alone (single dose doxorubicin one week after 1×10^6 cells i.v.)) [%] | survival ([2]; chemotherapy alone versus untreated mice) | protection from localized lymphoma growth [3] |
| --- | --- | --- | --- | --- |
| COc1cccc2c1C(=O)c1c(O)c3c(c(O)c1C2=O)C[C@@](O)(C(=O)CO)C[C@@H]3O[C@H]1C[C@H](N)[C@H](O)[C@H](C)O1 [doxorubicin] | sensitive; also recorded: rapid apoptosis with low doses | 60 | prolonged their survival | – |
| pDEST-ALK^K210R: pDEST plasmid encoding cytoplasmic portion of kinase dead mutant K210R of ALK (SEQ ID No.:3) | – | – | – | total protection |
| pDEST-ALKt: pDEST plasmid with truncated form of ALK lacking part of the tyrosine kinase domain (SEQ ID No.: 2) (nucleic acid, portion of cytoplasmic domain of ALK - human) DNA: TGCTTTGCTGGCAAGACCTCCTCCATCAGTGACCTGAAGGAGGTGCCGCGGAAAAACATCACCCTCATTCGGGGTCTGGGCCATGGCGCCTTTGGGGAGGTGTATGAAGGCCAGGTGTCCGGAATGCCCAACGACCCAAGCCCCCTGCAAGTGGCTGTGAAGACGCTGCCTGAAGTGTGCTCTGAACAGGACGAACTGGATTTCCTCATGGAAGCCCTGATCATCAGCAAATTCAACCACCAGAACATTGTTCGCTGCATTGGGGTGAGCCTGCAATCCCTGCCCCGGTTCATCCTGCTGGAGCTCATGGCGGGGGGAGACCTCAAGTCCTTCCTCCGAGAGACCCGCCCTCGCCCGAGCCAGCCCTCCTCCCTGGCCATGCTGGACCTTCTGCACGTGGCTCGGGACATTGCCTGTGGCTGTCAGTATTTGGAGGAAAACCACTTCATCCACCGAGACATTGCTGCCAGAAACTGCCTCTTGACCTGTCCAGGCCCTGGAAGAGTGGCCAAGATTGGAGACTTCGGGATGGCCCGAGACATCTACAGGGCGAGCTACTATAGAAAGGGAGGCTGTGCCATGCTGCCAGTTAAGTGGATGCCCCCAGAGGCCTTCATGGAAGGAATATTCACTTCTAAAACAGACACATGGTCCTTTGGAGTGCTGCTATGGGAAATCTTTTCTCTTGGATATATGCCATACCCCAGCAAAAGCAACCAGGAAGTTCTGGAGTTTGTCACCAGTGGAGGCCGGATGGACCCACCCAAGAACTGCCCTGGGCCTGTATACCGGATAATGACTCAGTGCTGGCAACATCAGCCTGAAGACAGGCCCAACTTTGCCATCATTTTGGAGAGGATTGAATACTGCACCCAGGACCCGGATGTAATCAACACCGCTTTG | – | – | – | total protection |
